According to US20140275049A1, “SUBSTITUTED PYRAZOLE ANALOGS As RAR ANTAGONISTS” (Eli Lilly and Company, priority 2011, published 2014):

Columns and labels:
[1] = target: T1, RARβ (Homo sapiens, UniProt P10826); assay: RARβ binding assay (SPA, 3H-TTNPB competition); conditions: RARβ/RXRα heterodimer
T1 construct: made in house; host or cells: baculovirus expression system
T1 sequence (P10826 1-455): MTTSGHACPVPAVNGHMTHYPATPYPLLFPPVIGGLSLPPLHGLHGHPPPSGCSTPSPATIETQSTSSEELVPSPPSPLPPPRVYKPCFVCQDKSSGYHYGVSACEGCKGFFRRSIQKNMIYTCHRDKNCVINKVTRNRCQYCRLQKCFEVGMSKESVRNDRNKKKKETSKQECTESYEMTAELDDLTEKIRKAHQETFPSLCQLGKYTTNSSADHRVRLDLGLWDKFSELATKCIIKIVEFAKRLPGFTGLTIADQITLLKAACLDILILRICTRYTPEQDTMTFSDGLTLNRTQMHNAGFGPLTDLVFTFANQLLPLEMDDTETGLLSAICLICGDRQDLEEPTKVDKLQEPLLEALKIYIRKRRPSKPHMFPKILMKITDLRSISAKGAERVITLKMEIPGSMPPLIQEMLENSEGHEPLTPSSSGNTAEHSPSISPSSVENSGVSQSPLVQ
T1 sequence (P19793 1-462 partner): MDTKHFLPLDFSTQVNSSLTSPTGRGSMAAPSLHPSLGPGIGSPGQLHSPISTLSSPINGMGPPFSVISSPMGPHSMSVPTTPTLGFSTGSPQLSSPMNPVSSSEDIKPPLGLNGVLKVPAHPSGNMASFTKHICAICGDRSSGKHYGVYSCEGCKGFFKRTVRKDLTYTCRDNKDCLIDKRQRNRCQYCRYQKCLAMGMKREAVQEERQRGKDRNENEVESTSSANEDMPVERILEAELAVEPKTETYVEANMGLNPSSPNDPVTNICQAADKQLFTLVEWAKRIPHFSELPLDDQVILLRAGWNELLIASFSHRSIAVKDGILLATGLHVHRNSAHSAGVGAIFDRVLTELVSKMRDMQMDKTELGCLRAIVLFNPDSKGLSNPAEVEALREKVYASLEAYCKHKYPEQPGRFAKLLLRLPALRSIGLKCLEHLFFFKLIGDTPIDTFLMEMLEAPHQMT
Excerpt: Compounds can be evaluated for binding to RARα, β and γ by measuring their ability to competitively bind to the RAR receptors when dimerized with the binding partner RXRα. Competitive binding assays may be carried out by Scintillation Proximity Assay (SPA) technology using the RARα, β or γ heterodimer (with RXRα as a partner with all the RARs) receptors prepared in a baculovirus expression system. Use the biotinylated oligonucleotide: 5′-[…]-3′ for binding of receptor to yttrium silicate streptavidin-coated SPA beads. Per well, preincubate […] with 82.7 μg SPA beads in a binding buffer containing 10 mM HEPES pH 7.8, 80 mM KCl, 0.5 mM MgCl2, 1 mM DTT, 0.5% CHAPS and 16.6 μg bovine serum albumin for 30 min at room temperature. Then spin the mixture at 2,000 rpm for 3 min to pelletize the beads-oligo mix. Remove the supernatant and resuspend the beads-oligo pellet in the same binding buffer as above, but which in addition now also contain 14% glycerol, 5 μg of sheared salmon sperm DNA, 0.5 μg of RARα, 1.0 μg of RARβ, or 0.25 μg of RARγ receptor, respectively. Carry out the binding assays in the presence of ˜11.3 μCi of ^3H 4-[(E)-2-(5,6,7,8-tetrahydro-5,5,8,8-tetramethyl-2-naphthalenyl)-1-propenyl]benzoic acid (TTNPB), and multiple concentrations of test compound ranging from (5 nM to 10 μM). Non-specific binding may be determined in the presence of 1 μM unlabeled TTNPB. Use the data to calculate an IC50 for compounds after fitting the dose-response curves to a 4-parameter logistic fit. Use the Cheng-Prusoff equation to convert IC50 (nM) values for compounds to Ki, and the Kd may be determined by saturation binding.

[2] = target: T2, human RARγ LBD (Homo sapiens, UniProt P13631); assay: RARγ SRC-2 coactivator recruitment assay (agonist mode); assay type: biochemical; conditions: maximum stimulation relative to fitted top of TTNPB standard curve
T2 sequence (P13631 185-419 limits assumed): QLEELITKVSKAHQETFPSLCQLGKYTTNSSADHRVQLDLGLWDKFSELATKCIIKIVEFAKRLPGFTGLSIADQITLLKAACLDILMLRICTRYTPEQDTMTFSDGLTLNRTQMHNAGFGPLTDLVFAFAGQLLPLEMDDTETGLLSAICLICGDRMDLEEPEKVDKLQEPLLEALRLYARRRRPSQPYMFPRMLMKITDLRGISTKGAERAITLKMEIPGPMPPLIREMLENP
T2 sequence (P19793 227-458 partner limits assumed): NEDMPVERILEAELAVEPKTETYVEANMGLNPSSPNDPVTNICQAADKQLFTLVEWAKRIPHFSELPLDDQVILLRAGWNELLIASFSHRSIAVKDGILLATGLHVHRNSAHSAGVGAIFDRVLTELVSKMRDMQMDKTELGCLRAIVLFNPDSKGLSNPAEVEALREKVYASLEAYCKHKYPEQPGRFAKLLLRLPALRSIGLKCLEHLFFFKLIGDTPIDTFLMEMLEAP
Excerpt: The RARγ SRC-2 Coactivator recruitment assay utilizes the ligand binding domain (LBD) of RARγ with its binding partner RXRα to determine the ability of a compound to enhance the recruitment of the co-activator SRC-2 to the receptor complex. Enhanced recruitment of SRC2 is known to be reflective of an agonist confirmation of the RARγ receptor. The RARγ LBD and SRC2 peptides are covalently linked to AlphaScreen® beads such that enhanced protein-protein interactions can be assessed by energy transfer. Coactivator recruitment assays are performed using AlphaScreen® technology (Perkin Elmer USA) using a 6X-Histidine tagged human RARγ LBD and GST tagged hSRC-2 protein. Unlabelled RXRα LBD is added as a silent heterodimer partner. Nickel chelated donor beads are used to bind RARγ LBD and anti-GST acceptor beads are used to bind SRC-2. Serially diluted test compound is added in concentrations ranging from 10 μM to 500 pM to 20 nM human RARγ receptor, 25 nM RXRα LBD, and 5 nM SRC-2 protein in a buffer containing 25 mM HEPES (pH 7.5), 100 mM NaCl, 0.1% Bovine Serum Albumin (fraction V), and 2 mM DTT containing 16.67 μg/ml of nickel chelated donor beads and 16.67 μg/ml of anti GST acceptor beads in a final volume of 15 μl per well in a white 384 shallow well proxiplate. The RAR agonist, TTNPB, is used as a standard on each plate and is added in concentrations ranging from 100 nM to 5 pM. After incubating for 12 hours at room temperature, read the plate on a Perkin Elmer Envision using standard AlphaScreen® parameters for excitation and fluorescence. Use the data to calculate an EC50 for compounds after fitting the dose-response curves to a 4-parameter logistic fit. Calculate the percent stimulation using the fitted top of the TTNPB standard curve as a comparator.

SMILES: CC(C)(C)c1cc(-c2cc(-c3ccc(C(=O)O)cc3)nn2-c2ccc(S(C)(=O)=O)cc2)cc(C(C)(C)C)c1 [Example 19, 4-[5-(3,5-Di-tert-butylphenyl)-1-(4-methylsulfonylphenyl)pyrazol-3-yl]benzoic Acid]
- Ki [1]: 0.828 µM
- % Stimulation [2]: −3%

SMILES: CC(C)Sc1cc(-c2cc(-c3ccc(C(=O)O)cc3)nn2-c2ccc(C(=O)N(C)C)cc2)cc(C(C)(C)C)c1 [Example 12, 4-[5-(3-tert-Butyl-5-isopropylsulfanyl-phenyl)-1-[4-(dimethylcarbamoyl)phenyl]pyrazol-3-yl]benzoic Acid]
- Ki [1]: 0.609 µM
- % Stimulation [2]: 8.4%

SMILES: CC(C)(C)c1cc(-c2cc(-c3ccc(C(=O)O)cc3)nn2-c2ccc(C(=O)N3CCOCC3)cc2)cc(C(C)(C)C)n1 [Example 8, 4-[5-(2,6-Di-tert-butyl-4-pyridyl)-1-[4-(morpholine-4-carbonyl)phenyl]pyrazol-3-yl]benzoic acid]
- Ki [1]: 1.4 µM
- % Stimulation [2]: 0.6%

SMILES: CN1CCN(C(=O)c2ccc(-n3nc(-c4ccc(C(=O)O)cc4)cc3-c3cc(C(C)(C)C)cc(C(C)(C)C)c3)cc2)CC1 [Example 1, 4-[5-(3,5-Di-tert-butylphenyl)-1-[4-(4-methylpiperazine-1-carbonyl)phenyl]pyrazol-3-yl]benzoic Acid]
- Ki [1]: > 1.82 µM
- % Stimulation [2]: 0.2%
